Holding throughout (experiment): growth of human tumour cells (NCI), 48 h
Experiment [1] relates to HCT-15 colon.
Experiment [2] deals with HOP-92 NSCLC.
For experiment [3], the system named is IGROV1 ovarian.
Experiment [4] deals with MALME-3M melanoma.
Experiment [5] concerns MOLT-4 leukemia.
Experiment [6] deals with NCI-H460 lung.
In experiment [7] the test system is OVCAR-5 ovarian.
The subject of experiment [8] is RXF 393 renal.
Experiment [9] concerns SK-MEL-2 melanoma.
For experiment [10], the system named is SK-OV-3 ovarian.
Experiment [11] has as its system SW-620 colon.
Experiment [12] concerns A498 renal.

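Five concentrations, 48 hours, 96-well plates. TGI is the concentration that stops growth completely.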 Some results are limits rather than exact numbers.

In the case of `O=C(c1ccc(Cl)cc1)c1ccc(OCCCOc2ccc(C(=O)c3ccc(Cl)cc3)cc2Cl)c(Cl)c1`, the TGI in experiment [1], in experiment [2], in experiment [3], in [4], in experiment [5] and in experiment [6] was greater than 100 µM throughout. Further, the TGI in experiment [7], in experiment [8], in experiment [9], in experiment [10] and in [11] was greater than 100 µM in each case.

For the compound `C=C1C(=O)O[C@H]2C1C[C@@H](OC(C)=O)/C(C)=C/CC[C@@]1(C)O[C@H]21` (stereo not given in full), the TGI is 22.9 µM in experiment [1]; 32.4 µM in experiment [2]; 21.2 µM in experiment [3]; 18.7 µM in [4]; 9.7 µM in [5]; greater than 100 µM in experiment [6]. Besides, the TGI in [7] worked out at 31.5 µM; in [8], 20.2 µM; in [9] it was 57.9 µM; in experiment [10], 64 µM; in [11], 20.4 µM.

`Cc1cccc2sc(-c3ccc(O)cc3)nc12`: the TGI in [12] was 20.4 µM; in experiment [1] it was 26 µM; in experiment [3], 29.2 µM; in [4], 32.8 µM; in [5], greater than 100 µM; in experiment [6] it was 33.3 µM. Moreover, the TGI in [7] is 30.2 µM; in experiment [8], 32.1 µM; in [9], 33.7 µM; in [10], 35.4 µM; in experiment [11], 23.7 µM.

Take `CC1CCC2CC(=O)OC([C@@H]3C(=O)O[C@@H](C4=CCCC4)C4C(C)CCC43)C12` (stereo not given in full): the TGI in [1], in experiment [3], in [4], in experiment [5], in experiment [6] and in experiment [8] was greater than 100 µM throughout. In addition, the TGI in experiment [9], in experiment [10] and in [11] was greater than 100 µM each time.

As to `O=C1Nc2nccnc2C(=O)N2CCC[C@@H]12`, the TGI in experiment [1], in [2], in experiment [3], in experiment [4], in experiment [5] and in experiment [6] was greater than 100 µM in each case. For the same compound, the TGI in [7], in experiment [8], in experiment [9], in experiment [10] and in experiment [11] was greater than 100 µM each time.

In the case of `COc1cccc(C2SC(N)=Nc3c2c(C)nn3C(=O)Cc2ccccc2)c1` (stereo not given), the TGI in experiment [12], in experiment [1], in [3], in experiment [4], in experiment [5] and in experiment [6] was greater than 100 µM in each case. Further, the TGI in [10] and in [11] was greater than 100 µM throughout.

On to `CCOC(=O)CC(NC(=O)c1[nH]cnc1/N=N/N(C)C)C(=O)OCC` (stereo not given), for which the TGI in experiment [12], in experiment [1], in experiment [3], in experiment [4], in [5] and in [6] was greater than 100 µM throughout. Moreover, the TGI in experiment [7], in [9], in experiment [10] and in [11] was greater than 100 µM throughout.

For `CCc1ccc(COC(=O)C2=C(C)NC(C)=C(C(=O)OCc3ccc(CC)cn3)C2C2=COCCO2)nc1`, the TGI in experiment [1] is 71.4 µM; in experiment [2], 43 µM; in experiment [3] it was greater than 100 µM; in experiment [5], 33.6 µM; in [6], 91.3 µM; in [7], 69.3 µM. Moreover, the TGI in [8] came out at 37.3 µM; in experiment [10], 45.8 µM; in [11] it was 80.4 µM.

As for `COc1ccc(-c2c3c(n(C4OC(CO)C(O)C(O)C4O)c(=S)c2C#N)CCCC3)cc1` (stereo not given), the TGI in experiment [12], in experiment [1], in experiment [3], in [4], in experiment [5] and in experiment [6] was greater than 100 µM each time. Also, the TGI in experiment [7], in experiment [8], in [9], in experiment [10] and in experiment [11] was greater than 100 µM in each case.

In the case of `COC1CC(OC2C(C)OC(OC3C(C)OC(OC4C(C)OC(O[C@H]5CC[C@@]6(C)C(=CC[C@]7(O)[C@@H]6C[C@@H](OC(C)=O)[C@@]6(C)[C@]7(O)CC[C@@]6(O)C(C)=O)C5)CC4OC)CC3OC)CC2OC)OC(C)C1O` (stereo not given in full), the TGI in experiment [1], in experiment [2], in experiment [3], in experiment [4], in [5] and in [7] was greater than 25 µM each time. Moreover, the TGI in experiment [9], in [10] and in experiment [11] was greater than 25 µM in each case.

`O=Cc1cc(C(=O)OCc2ccccc2)n(S(=O)(=O)c2ccccc2)c1`: the TGI is 50.7 µM in experiment [1]; 84 µM in experiment [3]; greater than 100 µM in experiment [4]; greater than 100 µM in [5]; 70.2 µM in [6]; 37.6 µM in [7]. Moreover, the TGI in [8] was determined as 94.9 µM; in [9], 39.6 µM; in [10] it was 66.3 µM.

`O=[N+]([O-])c1ccc(-n2nc3ccc4c(no[n+]4[O-])c3n2)cc1`: the TGI in experiment [1], in experiment [2], in experiment [3], in [4], in experiment [5] and in experiment [6] was greater than 100 µM each time. For the same compound, the TGI in experiment [7], in [9], in experiment [10] and in experiment [11] was greater than 100 µM throughout.

As to `O=C(NNC(=S)NC1CCCCC1)C12CC3CC(CC(C3)C1)C2`, the TGI in experiment [12], in experiment [1], in [3], in [4], in experiment [5] and in experiment [6] was greater than 100 µM in each case. Besides, the TGI in [7], in experiment [8], in experiment [9], in [10] and in experiment [11] was greater than 100 µM in each case.

(Values after PubChem BioAssay (NCI).)
